Tests used:
[1] = test system: influenza type A (H1N1, H3N2, and H3N8) viral strains; format: cell-based
A/WS/33 = assay: 3-day CP assay in MDCK cells; format: cell-based; settings: Influenza A virus
A/NWS/33 = assay: 3-day CP assay in MDCK cells; format: cell-based, influenza A
A/Puerto Rico/8/34 = assay: 3-day CP assay in MDCK cells; format: cell-based; settings: Influenza A virus
A/Weiss/43 = assay: 3-day CP assay in MDCK cells; format: cell-based; settings: Influenza A virus
A/FM/1/47 = assay: 3-day CP assay in MDCK cells; format: cell-based; settings: Influenza A virus
A/Denver/1/57 = assay: 3-day CP assay in MDCK cells; format: cell-based; settings: Influenza A virus
A/Hong Kong/8/68 = assay: 3-day CP assay in MDCK cells; format: cell-based; settings: Influenza A virus
A/New Jersey/8/76 = assay: microbe, parasite or virus in culture; format: cell-based; settings: Influenza A virus, MDCK
A/Wisconsin/67/2005 = assay: 3-day CP assay in MDCK cells; format: cell-based; settings: Influenza A virus
A/Chelyabinsk/1/200 = assay: 3-day CP assay in MDCK cells; format: cell-based; settings: Influenza A virus
A/Fukushima/141/2006 = assay: 3-day CP assay in MDCK cells; format: cell-based; settings: Influenza A virus
A/Georgia/17/2006 = assay: 3-day CP assay in MDCK cells; format: cell-based; settings: Influenza A virus
A/Georgia/20/2006 = assay: 3-day CP assay in MDCK cells; format: cell-based, influenza A
A/Hawaii/2/2006 = assay: 3-day CP assay in MDCK cells; format: cell-based; settings: Influenza A virus
A/Missouri/3/2006 = assay: 3-day CP assay in MDCK cells; format: cell-based; settings: Influenza A virus
A/Nebraska/1/2006 = assay: 3-day CP assay in MDCK cells; format: cell-based; settings: Influenza A virus
A/Santiago/7981/2006 = assay: 3-day CP assay in MDCK cells; format: cell-based; settings: Influenza A virus
A/Cambodia0371/2007 = assay: 3-day CP assay in MDCK cells; format: cell-based; settings: Influenza A virus
A/Henan/Jinshui/147/2007 = assay: 3-day CP assay in MDCK cells; format: cell-based; settings: Influenza A virus
A/South Dakota/6/2007 = assay: 3-day CP assay in MDCK cells; format: cell-based; settings: Influenza A virus
A/Texas/12/2007 = assay: 3-day CP assay in MDCK cells; format: cell-based; settings: Influenza A virus
A/Uruguay/716/2007 = assay: 3-day CP assay in MDCK cells; format: cell-based; settings: Influenza A virus
[2] = test system: A/California/07/2009 NYMC, X-179A; assay: 3-day CP assay in MDCK cells; format: cell-based; settings: Influenza A virus
A/Mexico/4108/2009 = assay: 3-day CP assay in MDCK cells; format: cell-based; settings: Influenza A virus
A/New York/18/2009 = assay: 3-day CP assay in MDCK cells; format: cell-based; settings: Influenza A virus
A/Texas/48/2009 = assay: 3-day CP assay in MDCK cells; format: cell-based; settings: Influenza A virus
A/Virginia/ATCC2/2009 = assay: 3-day CP assay in MDCK cells; format: cell-based; settings: Influenza A virus
A/Virginia/ATCC3/2009 = assay: 3-day CP assay in MDCK cells; format: cell-based; settings: Influenza A virus
A/Swine/1976/31 = assay: microbe, parasite or virus in culture; format: cell-based; settings: Influenza A virus, MDCK, in Sus scrofa
A/Equine/Miami/63 = assay: microbe, parasite or virus in culture; format: cell-based; settings: Influenza A virus, MDCK
A/VN/1203/2004 (H5N1) = assay: microbe, parasite or virus in culture; format: cell-based; settings: Influenza A virus, H5N1, MDCK
B/Lee/40 = assay: 3-day CP assay in MDCK cells; format: cell-based; settings: Influenza B virus
B/Mass/3/66 = assay: 3-day CP assay in MDCK cells; format: cell-based; settings: Influenza B virus
B/Memphis/20/1996--070 = assay: 3-day CP assay in MDCK cells; format: cell-based; settings: Influenza B virus
B/Memphis/20/1996--071 = assay: 3-day CP assay in MDCK cells; format: cell-based; settings: Influenza B virus
influenza A = assay: Influenza A mouse model, Compound (1) with or without oseltamivir; format: in vivo, Mice; settings: for Percent Survival: 10 days
Experimental: Referring to FIG. 32, the potential for a positive therapeutic interaction between Compound (1) and oseltamivir against influenza A was explored in the mouse model. Mice were challenged with influenza A and dosed with vehicle (10 mL/kg 0.5% MC) or Compound (1) at 1, 3, 10, or 30 mg/kg BID alone, or in combination with 10 mg/kg BID oseltamivir. Therapy was started 48 hours post influenza A infection and continued for 10 days. All of the vehicle-treated controls succumbed to disease by study day 8 (Table 21).

influenza B = assay: Influenza B mouse model, Compound (1) with oseltamivir; format: in vivo, Mice
Experimental: The consequence of combining Compound (1) and oseltamivir was explored in the influenza B mouse model. Mice were dosed prophylactically with vehicle (10 mL/kg 0.5% MC), 10 mg/kg oseltamivir, or oseltamivir in combination with Compound (1) at 10 mg/kg, 30 mg/kg or 60 mg/kg BID and treatment continued for 10 days.

`CC(C)(C)[C@@H](CC(=O)O)Nc1nc(-c2c[nH]c3ncc(F)cc23)ncc1F` [Compound (1)] was tested, and the EC50 [1] was 4.3 nM, the EC50 (A/WS/33) was 2.4 nM and the EC50 (A/NWS/33) was 1.7 nM. The EC50 (A/Puerto Rico/8/34) was 14 nM, the EC50 (A/Weiss/43) was 1.3 nM and the EC50 (A/FM/1/47) was 1.5 nM. It also gave an EC50 (A/Denver/1/57) of 1.4 nM, an EC50 (A/Hong Kong/8/68) of 1.9 nM and an EC50 (A/New Jersey/8/76) of 0.96 nM. For the same molecule, the EC50 (A/Wisconsin/67/2005) was 3.7 nM, the EC50 (A/Chelyabinsk/1/200) was 3.1 nM and the EC50 (A/Fukushima/141/2006) was 1.5 nM. For the same molecule, the EC50 (A/Georgia/17/2006) was 9.1 nM, the EC50 (A/Georgia/20/2006) was 1.7 nM and the EC50 (A/Hawaii/2/2006) was 1.2 nM. The EC50 (A/Missouri/3/2006) was 2.6 nM, the EC50 (A/Nebraska/1/2006) was 1.9 nM and the EC50 (A/Santiago/7981/2006) was 1.8 nM. It also gave an EC50 (A/Cambodia0371/2007) of 1.2 nM, an EC50 (A/Henan/Jinshui/147/2007) of 19 nM and an EC50 (A/South Dakota/6/2007) of 0.52 nM. The EC50 (A/Texas/12/2007) was 30 nM, the EC50 (A/Uruguay/716/2007) was 1 nM and the EC50 [2] was 10 nM. The EC50 (A/Mexico/4108/2009) was 3.7 nM, the EC50 (A/New York/18/2009) was 1.4 nM and the EC50 (A/Texas/48/2009) was 1.2 nM. It also gave an EC50 (A/Virginia/ATCC2/2009) of 1.4 nM, an EC50 (A/Virginia/ATCC3/2009) of 1.2 nM and an EC50 (A/Swine/1976/31) of 5.2 nM. It also gave an EC50 (A/Equine/Miami/63) of 3.7 nM, an EC50 (A/VN/1203/2004 (H5N1)) of 4.2 nM and an EC50 (B/Lee/40) greater than 10000 nM. It also gave an EC50 (B/Mass/3/66) greater than 10000 nM, an EC50 (B/Memphis/20/1996--070) greater than 10000 nM and an EC50 (B/Memphis/20/1996--071) greater than 10000 nM. For the same molecule, the protection from mortality (influenza A; 1 or 3 mg/kg BID Compound (1) with 10 mg/kg oseltamivir dosed BID) was “increased protection from mortality compared to the single agents”, the “Percent Survival” value (influenza A; Compound (1) 1 mg/kg BID alone, started +48 hours after infection) was 0% and the “Percent Survival” value (influenza A; Compound (1) 1 mg/kg BID in combination with oseltamivir 10 mg/kg BID, +48 hours) was 87.5%. The “Percent Survival” value (influenza A; Compound (1) 3 mg/kg BID alone, started +48 hours after infection) was 75%, the “Percent Survival” value (influenza A; Compound (1) 3 mg/kg BID in combination with oseltamivir 10 mg/kg BID, +48 hours) was 100% and the “Percent Survival” value (influenza A; Compound (1) 10 mg/kg BID alone, started +48 hours after infection) was 100%. The “Percent Survival” value (influenza A; Compound (1) 10 mg/kg BID in combination with oseltamivir 10 mg/kg BID, +48 hours) was 100%, the “Percent Survival” value (influenza A; Compound (1) 30 mg/kg BID alone, started +48 hours after infection) was 100% and the “Percent Survival” value (influenza A; Compound (1) 30 mg/kg BID in combination with oseltamivir 10 mg/kg BID, +48 hours) was 100%. For the same molecule, the protection from mortality (influenza A; Compound (1) at 3 mg/kg BID alone) was “partial survival benefit”, the protection from mortality (influenza A; Compound (1) at 10 or 30 mg/kg BID alone) was “complete protection from mortality” and the protection from mortality (influenza A; administered alone: Compound (1) 1 mg/kg BID, oseltamivir 10 mg/kg) was “failed to protect mice from influenza infection”. The “interaction of Compound (1) and oseltamivir combination” value (influenza A; combination with oseltamivir) was “synergistic effect”, the “survival benefit and protection from BW and lung function loss” value (influenza B; 10, 30 or 60 mg/kg BID Compound (1) in combination with oseltamivir 10 mg/kg BID, prophylactic, 10 days) was “the same survival benefit and protection from BW and lung function loss as oseltamivir treatment alone” and the “interaction when added to oseltamivir therapy” value (influenza B; Compound (1) added to oseltamivir therapy) was “no negative interaction”. The “activity against influenza B” value (influenza B; mouse, in vivo) was “lack of Compound (1) activity against influenza B”.
